According to patent publication US10566550B2, “Formulation containing an organic semiconductor and a metal complex” (Merck Patent GmbH, priority 2015, dated 2020):
≈ marks a conversion by molar mass, not a printed value.

Test: Solubility of the materials in various solvents at 20° C.
Type: physicochemical
Settings: organic solvent or mixture, thermodynamic from solid
Procedure: For the purposes of this application, the solubility of a material in a solvent is taken to mean the highest material-to-solvent ratio in which the solution at room temperature (at about 20° C.), is clear and stays clear for at least several hours, preferably for at least 5 hours.
The solubility of a material in a solvent is the highest material-to-solvent ratio in which the solution at 20° C. is clear and stays clear for several hours.
The solubility (g/l) is determined according to the following method:
(1) A known amount of the solvent (for example 100 mL) is put in a container
(2) A defined amount of the material is added and the mixture is stirred with a magnetic stirring bar;

[1] = LM8 Toluene:Hexafluorobenzene (7:3)

Row | SMILES | solubility (LM1 Anisole:Xylene (2:1)) | solubility (LM2 Anisole) | solubility (LM3 Xylene) | solubility (LM4 Chlorobenzene) | solubility (LM5 THF) | solubility (LM6 Toluene:THF (9:1)) | solubility (LM7 Hexafluorobenzene) | solubility [1] | solubility (LM9 Meta-difluorobenzene) | solubility (LM10 Fluorobenzene) | solubility (LM11 Acetonitrile) | solubility (LM12 Benzonitrile) | solubility (LM13 Acetone) | solubility (LM14 DMF) | solubility (LM15 Toluene:DMF (8:2)) | solubility (LM16 DMSO) | solubility (LM17 Methanol) | solubility (LM18 Toluene:Methanol (8:2)) | solubility (LM19 EGDME) | solubility (LM20 Toluene)
1 | O=C([O][Bi]([O]C(=O)c1ccc(F)c(F)c1F)[O]C(=O)c1ccc(F)c(F)c1F)c1ccc(F)c(F)c1F [M1] | < 7.5 mg/mL | < 7.5 mg/mL | < 7.5 mg/mL | < 7.5 mg/mL | > 100 mg/mL | > 30 mg/mL | 15 to 20 mg/mL | 15 mg/mL | < 7.5 mg/mL | < 7.5 mg/mL | < 10 mg/mL | > 20 mg/mL | > 20 mg/mL | > 40 mg/mL | 15 mg/mL | > 20 mg/mL | > 20 mg/mL | 20 mg/mL | > 20 mg/mL | < 7.5 mg/mL
2 | CC1(C)c2ccccc2-c2ccc(N(c3ccc4c(c3)C3(c5ccccc5-c5ccccc53)c3ccccc3-4)c3ccccc3-c3ccccc3)cc21 [OS6] | > 50 mg/mL | 100 mg/mL (≈ 148 mM) | 40 mg/mL (≈ 59.2 mM) | – | > 40 mg/mL | > 50 mg/mL | – | 30 mg/mL (≈ 44.4 mM) | – | – | – | – | – | 10 mg/mL (≈ 14.8 mM) | 25 mg/mL (≈ 37 mM) | 10 mg/mL (≈ 14.8 mM) | – | 30 mg/mL (≈ 44.4 mM) | – | 60 mg/mL (≈ 88.8 mM)
